Measured values taken from patent US5288718A, “Method for decorporating radioactive isotope from living organism” (priority 1989, dated 1994).
Structures can show the parent of a compound that is named as a salt.

How the values were obtained:
[1] = with increasing atomic number (decreasing ionic size); cited from earlier work
[2] = Ca^2+ compared with Sr^2+; cited from earlier work
[3] = Lethal dose determination, intravenous, mortality within 30 days; conditions: in vivo, DMCRYP salt×NaBr (x=2.5-8) as prepared according to Example I
Protocol: Healing power of the composition has been evidenced by animal tests. In this way, the minimum and average lethal doses (LD0.1 and LD50, respectively) have been established.
For the determination of lethal doses, the active ingredient was administered intravenously at increasing concentrations to the animals. Minimum and average lethal doses were calculated from the mortality within 30 days. […] On every occasion, one tenth of this dose was introduced into each animal in this experiment.

Hygroscopicity = format: physicochemical; conditions: sodium salt versus lithium salt
Water solubility = format: physicochemical; conditions: product of Example 1
[4] = Whole-body retention of radiostroncium in skin or subcutaneous interstitial tissues (FIG. 3, Example 3); format: in vivo; conditions: subcutaneous/skin isotope
Source text: (§1) In order to test the effect of DMCRYP on enhancing the decorporation of radiostroncium and the rare earth metal radiocerium from the body, male and female Swiss mice and Wistar rats were selected. […] In the comparative tests, a known polyaminopolycarboxylic acid-type decorporant (decorporating agent), calcium-trisodium salt of DTPA (diethylenetriaminopentacetic acid) (Heyl and Co., Berlin) was used at equimolar concentration. The amount of residual isotopes in the animal organisms was determined by whole-body activity measurements in every 1 to 4 days and was expressed as per cent of activity introduced.

[5] = Whole-body retention of Sr-85 introduced into the peritoneal cavity, female Wistar rats (FIG. 2, Example 2); format: in vivo; conditions: equimolar concentration
Source text: as §1

[6] = Whole-body retention of Sr-85 introduced into the peritoneal cavity, mice (FIG. 1); format: in vivo, Swiss mice; conditions: equimolar concentration, isotope in peritoneal cavity
Source text: as §1

[7] = Whole-body retention of cerium-144 introduced peritoneally (FIG. 6, Example 6); format: in vivo; conditions: female Swiss mice
Source text: as §1
Treatments were repeated twice, on the Days 2 and 4.

## O=C(O)CN1CCOCCOCCN(CC(=O)O)CCOCCOCC1 [1,10-diaza-4,7,13,16-tetraoxacyclooctadecane-N,N'-diacetic acid]
[1]
  Stability constants of rare earth metal complexes, trend: decrease with the increasing atomic number
[2]
  Relative stability of Ca^2+ and Sr^2+ complexes: identical within the experimental error

## O=C(O)C(C(=O)O)N1CCOCCOCCN(C(C(=O)O)C(=O)O)CCOCCOCC1 [DMCRYP, 1,4,10,13-tetraoxa-7,16-diazacyclooctadecane-N,N'-dimalonic acid tetrasodium salt]
[3]
  LD50 at 720 h: 1050 µmol/kg
Hygroscopicity; listed as sodium salt
  Hygroscopicity: not hygroscopic
Water solubility
  Water solubility: very soluble

## O=C(O)CN(CCN(CC(=O)O)CC(=O)O)CCN(CC(=O)O)CC(=O)O [DTPA, diethylenetriaminopentacetic acid]
[4]
  Effect of treatment on whole-body retention: ineffective
[5]
  Retention values compared to control: lower than those in the control but the difference was not statistically significant
[2]
  Relative stability of Ca^2+ and Sr^2+ complexes: considerably more stable with Ca^2+ than with Sr^2+
[6]
  Removal of Sr isotope from the animal body: ineffective
[7]; Day 2, after first treatment, 100 μmole/kg i.v. 30 minutes after isotope, control 85.9
  Whole-body retention of cerium-144: 72.8%
[7]; 100 μmole/kg, Days 2 and 4
  Effect of second and third treatments: ineffective

## O=C(O)CN(CCN(CC(=O)O)CC(=O)O)CC(=O)O [EDTA, ethylenediaminetetraacetic acid]
[2]
  Relative stability of Ca^2+ and Sr^2+ complexes: considerably more stable with Ca^2+ than with Sr^2+

## O=C(O)C(C(=O)O)N1CCOCCOCCN(C(C(=O)O)C(=O)O)CCOCCOCC1 [lithium salt]
Hygroscopicity
  Hygroscopicity: hygroscopic
